In patent US20130102009A1, “SIRTUIN ACTIVATORS AND ACTIVATION ASSAYS” (priority 2010, published 2013):
Structures can show the parent of a compound that is named as a salt.

Columns and labels:
[1] = molecular target: T1, SIRT1(183-664) (Homo sapiens, UniProt Q96EB6); assay: Fluorescence binding experiment with SIRT1(183-664); conditions: excitation 315 nm, emission 450 nm; read-out: Kx (μM), Fluorescence
T1 construct: the truncated version used for biophysical studies SIRT1(183-664); made in house
T1 sequence (Q96EB6 183-664): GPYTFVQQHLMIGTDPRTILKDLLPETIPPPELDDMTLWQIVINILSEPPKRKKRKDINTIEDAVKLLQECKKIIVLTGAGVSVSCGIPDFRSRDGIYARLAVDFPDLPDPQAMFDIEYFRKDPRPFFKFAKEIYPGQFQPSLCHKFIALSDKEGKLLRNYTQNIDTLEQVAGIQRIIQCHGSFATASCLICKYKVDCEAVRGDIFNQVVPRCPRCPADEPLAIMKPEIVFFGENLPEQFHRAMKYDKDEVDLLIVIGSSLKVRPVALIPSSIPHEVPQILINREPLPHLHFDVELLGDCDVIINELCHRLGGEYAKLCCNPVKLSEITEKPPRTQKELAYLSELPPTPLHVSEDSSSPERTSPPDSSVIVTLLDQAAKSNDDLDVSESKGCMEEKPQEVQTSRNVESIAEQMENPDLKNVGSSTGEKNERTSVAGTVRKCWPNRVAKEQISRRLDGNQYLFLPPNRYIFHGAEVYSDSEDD
Procedure: All peptides were prepared by BioPeptide (San Diego, Calif.) and shown to be at least 95% pure by analytical HPLC analysis. Bovine glutamate dehydrogenase (GDH), α-ketoglutarate, NADH and NAD^+ were from Sigma Chemical Company. Full-length, human SIRT1 and the truncated version used for biophysical studies SIRT1(183-664) were prepared as described previously, and shown to have equivalent kinetic properties (Milne et al. (2007) Nature 450, 712-716). The nicotinamidase PNC1 was prepared as described by Denu and colleagues (Smith et al. (2009) Anal Biochem 394, 101-109).
SIRT1(183-664) was dialyzed against a buffer composed of 137 mM NaCl, 2.7 mM KCl, 1 mM MgCl2, 2 mM TCEP, 5% (v/v) glycerol and 50 mM HEPES-NaOH, pH 7.3. 14 was dissolved in the final dialysis buffer and its pH values were adjusted to match that of the protein solution. The fluorescence emission spectra of 14 in the absence or presence of different concentrations of enzyme was monitored on the SpectraMax M5 with excitation at 315 nm. The fluorescence intensity change at 450 nm was plotted against the concentration of SIRT1(183-664) and fitted using a standard binding equation.

[2] = molecular target: Ac-Arg-His-Lys-Lys^Ac-AMC; assay: ITC binding of STACs to Ac-Arg-His-Lys-Lys^Ac-X, X=AMC; conditions: 10% DMSO for SRT1720, SRT2183 and 10, no cosolvent for SRT1460
Procedure: (§1) ITC experiments were performed using either a VP-ITC system or iTC200 system (MicroCal) at 26° C. in a buffer composed of 137 mM NaCl, 2.7 mM KCl, 1 mM MgCl2, 2 mM TCEP, 5% (v/v) glycerol and 50 mM HEPES-NaOH, pH 7.3. SIRT1(183-664) was purified and dialyzed against the buffer, centrifuged, and degassed before the experiment. The peptide and compounds were dissolved in the final dialysis buffer and their pH values were adjusted to match that of the protein solution. […] To characterize this interaction using the iTC200 system, 1 mM TAMRA-peptide was injected in 20 aliquots of 2 μL, (except the first injection, which was 0.5 μL) into a 0.202 mL sample cell containing 100 μM STAC. For STACs with poor solubility, the concentrations were adjusted accordingly. […] In all cases, data was corrected for the heat of dilution and fitted using a nonlinear least-squares routine using a single-site binding model with Origin for ITC v7.0383 (Microcal) with the stoichiometry (n), the enthalpy of the reaction (ΔH) and the association constant (Ka) calculated. Table 2 summarizes Kd values for the binding of STACs to […]. Note that except for SRT1460, the solubility of the compounds required that these ITC experiments be done in solutions containing 10% DMSO.

[3] = molecular target: Ac-Arg-His-Lys-Lys^Ac-NH2; assay: ITC binding of STACs to Ac-Arg-His-Lys-Lys^Ac-X, X=NH2; conditions: 10% DMSO for SRT1720, SRT2183 and 10, no cosolvent for SRT1460
Procedure: as §1

[4] = molecular target: Ac-Arg-His-Lys-Lys^Ac-Phe-NH2; assay: ITC binding of STACs to Ac-Arg-His-Lys-Lys^Ac-X, X=PheNH2; conditions: 10% DMSO for SRT1720, SRT2183 and 10, no cosolvent for SRT1460
Procedure: as §1

| SMILES | Kd [1] | Kd [2] | Kd [3] | Kd [4] | Kd for binding to Ac-Arg-His-Lys-Lys^Ac-X, X=PheNH2 [4] |
| --- | --- | --- | --- | --- | --- |
| CN(C)Cc1cnc2sc(-c3ccccc3NC(=O)c3cnc4ccccc4n3)nc2c1 [Compound 2, N-(2-(6-((dimethylamino)methyl)thiazolo[5,4-b]pyridin-2-yl)phenyl)quinoxaline-2-carboxamide] | 0.27 µM | – | – | – | – |
| CCCCc1nc(NC2CCNCC2)cc(C(=O)Nc2ccccc2-c2nc3cc(COC4CCNCC4)cnc3s2)n1 [Compound 10, 2-butyl-6-(piperidin-4-ylamino)-N-(2-(6-((piperidin-4-yloxy)methyl)thiazolo[5,4-b]pyridin-2-yl)phenyl)pyrimidine-4-carboxamide] | – | > 500 µM | > 500 µM | 190 µM | does bind |
| CN(C)CCCNc1cc(-c2nc3c(NC(=O)c4ccc(CN5CCNCC5)cc4)cccc3[nH]2)ccn1 [Compound 14, N-(2-(2-(3-(dimethylamino)propylamino)pyridin-4-yl)-1H-benzo[d]imidazol-4-yl)-4-(piperazin-1-ylmethyl)benzamide trihydrochloride] | 0.27 µM | – | – | – | – |
| COc1cc(C(=O)Nc2ccccc2-c2cn3c(CN4CCNCC4)csc3n2)cc(OC)c1OC [SRT1460] | – | > 500 µM | > 500 µM | > 500 µM | no binding |
